# Where two headings read alike, the source gives them in different places.
# Assays:
# Assay in all cases: MIC alone and checkerboard with EDTA or polymyxin B
# Format in all cases: cell-based
# [1] = test system: A. baumannii; conditions: for MIC: Acinetobacter baumannii, read-out: MIC, agent alone; for MIC of polymyxin B in combination with NCL195: with NCL195 0.5 μg/ml
# Protocol: (§1) MICs for NCL812 and its analogs (serial two-fold dilutions commencing at 128 μg/ml) were determined (in duplicate) in round bottom 96-well microtitre trays (Sarstedt 82.1582.001), using the broth micro-dilution method recommended by the Clinical and Laboratory Standards Institute (CLSI). […] MIC50, MIC90 and MIC range for NCL812, NCL195 and NCL219 were calculated against each S. pneumoniae, S. aureus or VRE isolate. To assess the potential activity of NCL195 against Gram-negative bacteria, MICs against Acinetobacter spp, E. coli, K. pneumoniae, P. aeruginosa, Proteus spp and Neisseria meningitidis were performed in the presence or absence of 0.08 mM-20 mM EDTA in a standard checkerboard assay.
# [2] = test system: E. coli; conditions: for MIC: Escherichia coli, read-out: MIC, agent alone; for MIC of polymyxin B in combination with NCL195: with NCL195 0.25 μg/ml
# Protocol: as §1
# [3] = test system: K. pneumoniae; conditions: for MIC of EDTA in combination with NCL195: with NCL195 4 μg/ml; for MIC: Klebsiella pneumoniae, read-out: MIC, agent alone
# Protocol: as §1
# [4] = test system: P. aeruginosa; conditions: for MIC: Pseudomonas aeruginosa, read-out: MIC, agent alone; for MIC of polymyxin B in combination with NCL195: with NCL195 1 μg/ml
# Protocol: as §1
compound,measurement,setting,value
"O=C(O)CN(CCN(CC(=O)O)CC(=O)O)CC(=O)O [EDTA, Ethylenediaminetetraacetic acid]",MIC of EDTA in combination with NCL195,"[1]; A. baumannii ATCC 12457, with NCL195 4 μg/ml",250 µM
same,MIC of EDTA in combination with NCL195,"[1]; A. baumannii ATCC 19606, with NCL195 2 μg/ml",500 µM
same,MIC,"[1]; ATCC12457, A. baumannii ATCC 12457",500 µM
same,MIC,"[1]; ATCC19606, A. baumannii ATCC 19606",1000 µM
same,MIC of EDTA in combination with NCL195,"[2]; E. coli ATCC 11229, with NCL195 8 μg/ml",625 µM
same,MIC of EDTA in combination with NCL195,"[2]; E. coli ATCC 25922, with NCL195 4 μg/ml",2500 µM
same,MIC,"[2]; ATCC11229, E. coli ATCC 11229",2500 µM
same,MIC,"[2]; ATCC25922, E. coli ATCC 25922",10000 µM
same,MIC of EDTA in combination with NCL195,[3]; K. pneumoniae ATCC 4352,10000 µM
same,MIC of EDTA in combination with NCL195,[3]; K. pneumoniae ATCC 33495,10000 µM
same,MIC,"[3]; ATCC4352, K. pneumoniae ATCC 4352",> 30000 µM
same,MIC,"[3]; ATCC33495, K. pneumoniae ATCC 33495",> 30000 µM
same,MIC of EDTA in combination with NCL195,"[4]; P. aeruginosa ATCC 27853, with NCL195 2 μg/ml",5000 µM
same,MIC of EDTA in combination with NCL195,"[4]; P. aeruginosa PA01, with NCL195 0.25 μg/ml",1250 µM
same,MIC,"[4]; ATCC27853, P. aeruginosa ATCC 27853",10000 µM
same,MIC,[4]; P. aeruginosa PA01,2500 µM
Polymyxin B sulfate,"MIC, agent alone",[1]; A. baumannii ATCC 12457,0.5 µg/mL
same,MIC of polymyxin B in combination with NCL195,[1]; A. baumannii ATCC 12457,0.125 µg/mL
same,"MIC, agent alone",[1]; A. baumannii ATCC 19606,0.5 µg/mL
same,MIC of polymyxin B in combination with NCL195,[1]; A. baumannii ATCC 19606,0.125 µg/mL
same,"MIC, agent alone",[2]; E. coli ATCC 11229,0.25 µg/mL
same,MIC of polymyxin B in combination with NCL195,[2]; E. coli ATCC 11229,0.125 µg/mL
same,"MIC, agent alone",[2]; E. coli ATCC 25922,0.25 µg/mL
same,MIC of polymyxin B in combination with NCL195,[2]; E. coli ATCC 25922,0.125 µg/mL
same,"MIC, agent alone",[3]; K. pneumoniae ATCC 4352,0.25 µg/mL
same,MIC of polymyxin B in combination with NCL195,"[3]; K. pneumoniae ATCC 4352, with NCL195 0.5 μg/ml",0.125 µg/mL
same,"MIC, agent alone",[3]; K. pneumoniae ATCC 33495,0.25 µg/mL
same,MIC of polymyxin B in combination with NCL195,"[3]; K. pneumoniae ATCC 33495, with NCL195 0.25 μg/ml",0.125 µg/mL
same,"MIC, agent alone",[4]; P. aeruginosa ATCC 27853,0.5 µg/mL
same,MIC of polymyxin B in combination with NCL195,[4]; P. aeruginosa ATCC 27853,0.125 µg/mL
same,"MIC, agent alone",[4]; P. aeruginosa PA01,0.5 µg/mL
same,MIC of polymyxin B in combination with NCL195,[4]; P. aeruginosa PA01,0.125 µg/mL

# Reference: publication PMC5584945, “Evaluation of robenidine analog NCL195 as a novel broad-spectrum antibacterial agent” (PLoS ONE, 2017)
